The record followed here is patent US7575882B2, “Compositions and methods for identifying modulators of TRPV2” (Janssen Pharmaceutica N. V., priority 2005, dated 2009).

The target in one assay is T1, rat TRPV2 (Rattus norvegicus, UniProt Q9WUD2, A713V/L151P/T158I).
T1 construct: A cDNA fragment encoding the full-length rat TRPV2 was subcloned into pCI-neo; expressed in transfected cells
T1 sequence (Q9WUD2 1-761 L151P/T158I/A713V): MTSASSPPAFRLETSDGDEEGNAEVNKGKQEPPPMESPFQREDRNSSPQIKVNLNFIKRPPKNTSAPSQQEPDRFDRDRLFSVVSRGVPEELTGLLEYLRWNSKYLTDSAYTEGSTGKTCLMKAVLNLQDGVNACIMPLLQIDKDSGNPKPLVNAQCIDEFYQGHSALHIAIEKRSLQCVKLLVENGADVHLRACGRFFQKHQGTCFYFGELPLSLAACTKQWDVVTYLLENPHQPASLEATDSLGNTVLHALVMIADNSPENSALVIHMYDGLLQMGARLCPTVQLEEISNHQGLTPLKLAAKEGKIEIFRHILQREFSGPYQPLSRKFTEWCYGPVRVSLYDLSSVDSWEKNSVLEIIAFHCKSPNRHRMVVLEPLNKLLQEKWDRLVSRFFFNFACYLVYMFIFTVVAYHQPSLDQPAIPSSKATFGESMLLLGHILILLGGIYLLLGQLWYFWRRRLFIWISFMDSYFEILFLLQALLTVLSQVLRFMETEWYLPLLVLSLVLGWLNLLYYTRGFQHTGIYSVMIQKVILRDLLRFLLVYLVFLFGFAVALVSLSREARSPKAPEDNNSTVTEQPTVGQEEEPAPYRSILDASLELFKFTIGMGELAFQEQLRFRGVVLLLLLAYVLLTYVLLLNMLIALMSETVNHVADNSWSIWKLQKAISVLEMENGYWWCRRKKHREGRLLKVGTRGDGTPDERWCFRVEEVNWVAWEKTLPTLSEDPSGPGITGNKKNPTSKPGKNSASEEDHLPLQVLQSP
As to the kind of experiment: Whole-cell patch clamp, HEK293 cells stably expressing rat TRPV2. The class given is cell-based. Particulars: 10 μM ruthenium red; 100 μM Δ^9-THC. As to the method:
To further confirm the Δ^9-THC effect on TRPV2, whole-cell patch clamp studies were performed. The extracellular solution contained (in mM): NaCl, 132; CaCl, 1.8; KCl, 5.4; MgCl2, 0.8; HEPES, 10; glucose, 10; pH=7.4. The intracellular solution used to fill recording pipettes contained (in mM): CsCl, 145; EGTA, 5; HEPES, 10; glucose, 5; pH=7.4. Recordings were performed using the conventional whole-cell patch clamp technique, 2-3 days after transient transfection of human TRPV2 into HEK293 cell or 1-2 days after plating HEK293 cells stably expressing rat TRPV2 onto glass coverslips. Currents were amplified by a patch clamp amplifier and filtered at 2 kHz (Axopatch 200B), sampled at 10 kHz using Digidata 1322A and acquired and analyzed with pClamp 9.0 (all instruments from Molecular Devices, CA). A 600 ms voltage ramp was given once every five seconds from −100 mV to +60 mV. The holding potential between voltage ramps was −100 mV. Extracellular solutions were applied to the cell at 0.5 ml/min via a gravity-fed perfusion system. All experiments were performed at 22° C.

A further assay deals with T2, human TRPV2 (Homo sapiens, UniProt Q9Y5S1).
T2 construct: A cDNA fragment encoding the full-length human TRPV2 was subcloned into pCI-neo or pcDNA3; expressed in transfected cells; host or cells: HEK293, transient, pCI-neo or pcDNA3
T2 sequence (Q9Y5S1 1-764): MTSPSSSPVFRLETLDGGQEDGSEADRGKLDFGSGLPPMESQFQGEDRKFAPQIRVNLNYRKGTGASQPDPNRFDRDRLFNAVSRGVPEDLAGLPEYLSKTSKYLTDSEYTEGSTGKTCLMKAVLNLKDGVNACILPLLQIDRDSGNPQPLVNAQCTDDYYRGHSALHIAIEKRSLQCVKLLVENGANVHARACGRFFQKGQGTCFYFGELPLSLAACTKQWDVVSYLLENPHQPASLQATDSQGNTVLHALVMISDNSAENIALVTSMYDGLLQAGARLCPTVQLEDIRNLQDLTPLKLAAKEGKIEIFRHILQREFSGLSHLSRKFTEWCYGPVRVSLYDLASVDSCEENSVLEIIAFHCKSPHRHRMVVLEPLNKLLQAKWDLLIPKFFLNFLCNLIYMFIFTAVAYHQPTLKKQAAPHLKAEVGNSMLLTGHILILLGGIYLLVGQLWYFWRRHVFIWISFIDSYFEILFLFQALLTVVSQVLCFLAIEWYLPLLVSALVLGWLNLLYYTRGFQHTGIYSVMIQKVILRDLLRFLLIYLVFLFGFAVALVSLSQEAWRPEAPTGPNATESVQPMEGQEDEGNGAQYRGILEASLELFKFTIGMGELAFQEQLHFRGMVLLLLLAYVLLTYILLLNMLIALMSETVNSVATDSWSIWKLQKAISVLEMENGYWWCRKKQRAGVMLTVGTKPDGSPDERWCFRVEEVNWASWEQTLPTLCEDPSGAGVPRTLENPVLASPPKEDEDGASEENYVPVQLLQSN
Put plainly: Whole-cell patch clamp, HEK293 cells transiently transfected with human TRPV2. The class given is cell-based. To be noted: 10 μM ruthenium red; 100 μM Δ^9-THC. The protocol: A cDNA fragment encoding the full-length human TRPV2 was subcloned into pCI-neo or pcDNA3 mammalian expression vectors. The expression constructs were then transfected into HEK293 cells with FuGene6 transfection reagent (Roche, Indianapolis, Ind.) according to vendor's protocol. TRPV2-expressing HEK293 cells were cultured in DMEM supplemented with 10% fetal bovine serum, 100 units/ml penicillin, and 100 μg/ml streptomycin for 48-72 hr and either evaluated for transient expression and/or activity, or dosed with 400 μg/ml G418 to select for stably-transfected TRPV2-expressing cell clones. Cells were maintained at 37° C. and in 5% CO2.
To further confirm the Δ^9-THC effect on TRPV2, whole-cell patch clamp studies were performed. The extracellular solution contained (in mM): NaCl, 132; CaCl, 1.8; KCl, 5.4; MgCl2, 0.8; HEPES, 10; glucose, 10; pH=7.4. The intracellular solution used to fill recording pipettes contained (in mM): CsCl, 145; EGTA, 5; HEPES, 10; glucose, 5; pH=7.4. […] Currents were amplified by a patch clamp amplifier and filtered at 2 kHz (Axopatch 200B), sampled at 10 kHz using Digidata 1322A and acquired and analyzed with pClamp 9.0 (all instruments from Molecular Devices, CA). […]

As for `N.N.N.N.N.N.N.N.N.N.N.N.N.N.[Cl-].[Cl-].[Cl-].[Cl-].[Cl-].[Cl-].[O-2].[O-2].[Ru+3].[Ru+3].[Ru+4]` [ruthenium red], the “inhibition of Δ^9-THC-activated currents, rat TRPV2” value against rat TRPV2 was “significantly inhibited”. Also, on human TRPV2, the “inhibition of Δ^9-THC-activated currents, human TRPV2” value is reported as “significantly inhibited”.
